Test system: LG0567-F671-PDC complex spheroids viability
Assay: Anticancer human tumor LG0567-F671-PDC patient-derived lung adenocarcinoma cell line growth inhibition [RAS]
Conditions: for viability, T/C: stronger effect = lower value
Procedure, shortened: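 Tumour cells grown as complex spheroids with HUVEC endothelial cells and mesenchymal stem cells, treated with RAS pathway inhibitor combinations. Each agent spans half-log steps from near clinical Cmax, or 10 microM where Cmax is unknown.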

[1] = curve of first compound, second compound 0.000949 µM
[2] = curve of first compound, second compound 0.003 µM
[3] = curve of first compound, second compound 0.00949 µM
[4] = curve of first compound, second compound 0.03 µM
[5] = curve of first compound, second compound 0.0949 µM
[6] = curve of first compound, second compound 0.3 µM
[7] = second compound 0.000949 µM, first compound 0.0316 µM
[8] = second compound 0.000949 µM, first compound 0.1 µM
[9] = second compound 0.000949 µM, first compound 0.316 µM
[10] = second compound 0.000949 µM, first compound 1 µM
[11] = second compound 0.003 µM, first compound 0.0316 µM
[12] = second compound 0.003 µM, first compound 0.1 µM
[13] = second compound 0.003 µM, first compound 0.316 µM
[14] = second compound 0.003 µM, first compound 1 µM
[15] = second compound 0.00949 µM, first compound 0.0316 µM
[16] = second compound 0.00949 µM, first compound 0.1 µM
[17] = second compound 0.00949 µM, first compound 0.316 µM
[18] = second compound 0.00949 µM, first compound 1 µM
[19] = second compound 0.03 µM, first compound 0.0316 µM
[20] = second compound 0.03 µM, first compound 0.1 µM
[21] = second compound 0.03 µM, first compound 0.316 µM
[22] = second compound 0.03 µM, first compound 1 µM
[23] = second compound 0.0949 µM, first compound 0.0316 µM
[24] = second compound 0.0949 µM, first compound 0.1 µM
[25] = second compound 0.0949 µM, first compound 0.316 µM
[26] = second compound 0.0949 µM, first compound 1 µM
[27] = second compound 0.3 µM, first compound 0.0316 µM
[28] = second compound 0.3 µM, first compound 0.1 µM
[29] = second compound 0.3 µM, first compound 0.316 µM
[30] = second compound 0.3 µM, first compound 1 µM
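Note: spheroids exposed to compound for seven days before readout.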
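Throughout, for IC50: luminescence signal used as a proxy for viable cells.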

In the case of C=CC(=O)N1CCN(c2nc(OCC3CCCN3C)nc3c(F)c(-c4nc(N)cc(C)c4C(F)(F)F)c(Cl)cc23)C(C)C1 (stereo unspecified) + CCn1c(-c2cccnc2C(C)OC)c2c3cc(ccc31)N1CCOC(CC(NC(=O)C(C(C)C)N(C)C(=O)C3(F)CCN(C(=O)C#CC(C)(C)N(C)C)CC3)C(=O)N3CCCC(N3)C(=O)OCC(C)(C)C2)C1, the IC50 [1] is reported as < 3.16 nM, the IC50 [2] is reported as < 3.16 nM and the IC50 [3] is reported as < 3.16 nM. The IC50 [4] was < 3.16 nM, the IC50 [5] was < 3.16 nM and the IC50 [6] was < 3.16 nM. For the same molecule, the viability, T/C (second compound 0.000949 µM, first compound 0.00316 µM) was 13.9%, the viability, T/C (second compound 0.000949 µM, first compound 0.01 µM) was 13.6% and the viability, T/C [7] was 13.3%. It also gave a viability, T/C [8] of 14.4%, a viability, T/C [9] of 15.2% and a viability, T/C [10] of 15.5%. For the same molecule, the viability, T/C (second compound 0.003 µM, first compound 0.00316 µM) was 12.5%, the viability, T/C (second compound 0.003 µM, first compound 0.01 µM) was 14.6% and the viability, T/C [11] was 13.8%. It also gave a viability, T/C [12] of 13.8%, a viability, T/C [13] of 19.5% and a viability, T/C [14] of 15.4%. The viability, T/C (second compound 0.00949 µM, first compound 0.00316 µM) was 15.2%, the viability, T/C (second compound 0.00949 µM, first compound 0.01 µM) was 14.1% and the viability, T/C [15] was 12.8%. For the same molecule, the viability, T/C [16] was 14.5%, the viability, T/C [17] was 14.1% and the viability, T/C [18] was 14.4%. It also gave a viability, T/C (second compound 0.03 µM, first compound 0.00316 µM) of 13.6%, a viability, T/C (second compound 0.03 µM, first compound 0.01 µM) of 13.9% and a viability, T/C [19] of 14.8%. For the same molecule, the viability, T/C [20] was 13.3%, the viability, T/C [21] was 13.4% and the viability, T/C [22] was 15.1%. The viability, T/C (second compound 0.0949 µM, first compound 0.00316 µM) was 12.6%, the viability, T/C (second compound 0.0949 µM, first compound 0.01 µM) was 12.8% and the viability, T/C [23] was 11.9%. For the same molecule, the viability, T/C [24] was 12.3%, the viability, T/C [25] was 12.9% and the viability, T/C [26] was 12.4%. For the same molecule, the viability, T/C (second compound 0.3 µM, first compound 0.00316 µM) was 9.04%, the viability, T/C (second compound 0.3 µM, first compound 0.01 µM) was 8.65% and the viability, T/C [27] was 10.4%. The viability, T/C [28] was 13.6%, the viability, T/C [29] was 12.6% and the viability, T/C [30] was 11.6%.

CC(=O)OC12COC1CC(O)C1(C)C(=O)C(O)C3=C(C)C(OC(=O)C(O)C(NC(=O)OC(C)(C)C)c4ccccc4)CC(O)(C(OC(=O)c4ccccc4)C21)C3(C)C (stereo unspecified) + CCn1c(-c2cc(N3CCN(C)CC3)cnc2C(C)OC)c2c3cc(ccc31)-c1csc(n1)CC(NC(=O)C1CC1C)C(=O)N1CCCC(N1)C(=O)OCC(C)(C)C2 was tested, and the IC50 [1] was < 31.6 nM, the IC50 [2] was < 31.6 nM and the IC50 [3] was < 31.6 nM. The IC50 [4] was < 31.6 nM, the IC50 [5] was < 31.6 nM and the IC50 [6] was < 31.6 nM. It also gave a viability, T/C [7] of 17.3%, a viability, T/C [8] of 14.6% and a viability, T/C [9] of 16.6%. It also gave a viability, T/C [10] of 20.3%, a viability, T/C (second compound 0.000949 µM, first compound 3.16 µM) of 21.7% and a viability, T/C (second compound 0.000949 µM, first compound 10 µM) of 15.3%. It also gave a viability, T/C [11] of 8.54%, a viability, T/C [12] of 7.86% and a viability, T/C [13] of 8.72%. The viability, T/C [14] was 8.18%, the viability, T/C (second compound 0.003 µM, first compound 3.16 µM) was 8.46% and the viability, T/C (second compound 0.003 µM, first compound 10 µM) was 5.71%. For the same molecule, the viability, T/C [15] was 5.57%, the viability, T/C [16] was 4.28% and the viability, T/C [17] was 4.95%. For the same molecule, the viability, T/C [18] was 3.96%, the viability, T/C (second compound 0.00949 µM, first compound 3.16 µM) was 4.72% and the viability, T/C (second compound 0.00949 µM, first compound 10 µM) was 3.03%. It also gave a viability, T/C [19] of 3.18%, a viability, T/C [20] of 3.69% and a viability, T/C [21] of 3.02%. For the same molecule, the viability, T/C [22] was 3.03%, the viability, T/C (second compound 0.03 µM, first compound 3.16 µM) was 2.9% and the viability, T/C (second compound 0.03 µM, first compound 10 µM) was 1.92%. For the same molecule, the viability, T/C [23] was 2.46%, the viability, T/C [24] was 2.37% and the viability, T/C [25] was 2.22%. The viability, T/C [26] was 2.27%, the viability, T/C (second compound 0.0949 µM, first compound 3.16 µM) was 2.34% and the viability, T/C (second compound 0.0949 µM, first compound 10 µM) was 1.6%. It also gave a viability, T/C [27] of 2.92%, a viability, T/C [28] of 1.92% and a viability, T/C [29] of 1.85%. The viability, T/C [30] was 1.89%, the viability, T/C (second compound 0.3 µM, first compound 3.16 µM) was 2.06% and the viability, T/C (second compound 0.3 µM, first compound 10 µM) was 1.66%.

In the case of CCc1c2c(nc3ccc(O)cc13)-c1cc3c(c(=O)n1C2)COC(=O)[C@]3(O)CC, the viability, T/C (compound 0.000949 µM) is reported as 93.3% [middle of 4 runs], the viability, T/C (compound 0.003 µM) is reported as 79% [middle of 4 runs] and the viability, T/C (compound 0.00949 µM) is reported as 65.1% [middle of 4 runs]. For the same molecule, the viability, T/C (compound 0.03 µM) was 48.5% [middle of 4 runs], the viability, T/C (compound 0.0949 µM) was 27.1% [middle of 4 runs] and the viability, T/C (compound 0.3 µM) was 7.59% [middle of 4 runs]. For the same molecule, the IC50 (curve of compound) was 26.9 nM [middle of 4 runs].
